Measurements reported in US7964531B2, “3-phenoxy-4-pyridazinol derivatives and herbicidal composition containing the same” (Mitsui Chemicals Agro, Inc., priority 2001, dated 2011).
Where a name gives a salt, the structure may show the parent alone.

| SMILES | melting point |
| --- | --- |
| Cc1ccc(S(=O)(=O)Oc2c(Cl)cnnc2Oc2ccccc2C)cc1 (as salt: benzene sulfonate) [Compound No. 66, 5-Chloro-3-(2-methylphenoxy)-4-pyridazinyl 4-methylbenzene sulfonate] | 140 to 143 °C |
| CC=Cc1ccc(Cl)cc1Oc1nnc(Cl)cc1O [Compound No. 680, 6-Chloro-3-[5-chloro-2-(1-propenyl)phenoxy]-4-pyridazinol] | 221 to 224 °C |
| Cc1cccc(C2CC2)c1Oc1nnc(Cl)cc1OC(=O)c1ccc(C(=O)Oc2cc(Cl)nnc2Oc2c(C)cccc2C2CC2)cc1 [Compound No. 3001, Bis[6-chloro-3-(2-cyclopropyl-6-methylphenoxy)-4-pyridazinyl]terephthalate] | 247 to 249 °C |
| Cc1cc(C)c([N+](=O)[O-])c(Oc2nnc(Cl)cc2O)c1C [Compound No. 2608, 6-Chloro-3-(2,3,5-trimethyl-6-nitrophenoxy)-4-pyridazinol] | 172 to 174 °C |
| Oc1cc(Cl)nnc1Oc1ccccc1C1CCC1 [Compound No. 284, 6-Chloro-3-(2-cyclobutylphenoxy)-4-pyridazinol] | 188 to 189 °C |
| Cc1cccc(C2CC2)c1Oc1nnc(Cl)cc1OC(=O)N(CCCl)CCCl | 166 to 167 °C |
| Oc1cc(Cl)nnc1Oc1ccccc1OC(F)F [Compound No. 390, 6-Chloro-3-[2-(difluoromethoxy)phenoxy]-4-pyridazinol] | 210 to 212 °C |
| CCSc1cc(Oc2nnc(Cl)cc2O)c(Br)cc1Br [Compound No. 2596, 6-Chloro-3-[2,4-dibromo-5-(ethylsulfanyl)phenoxy]-4-pyridazinol] | 225 to 228 °C |
| Cc1cc(C)c(F)c(Oc2nnc(Cl)cc2O)c1C [Compound No. 2597, 6-Chloro-3-(2-fluoro-3,5,6-trimethylphenoxy)-4-pyridazinol] | 258 to 260 °C |
| CC1(c2ccccc2Oc2nnc(Cl)cc2O)CC1 [Compound No. 144, 6-Chloro-3-[2-(1-methylcyclopropyl)phenoxy]-4-pyridazinol] | 196 to 198 °C |
| COCC1(c2ccccc2Oc2nnc(Cl)cc2O)CC1 [Compound No. 163, 6-Chloro-3-{2-[1-(methoxymethyl)cyclopropyl]phenoxy}-4-pyridazinol] | 187 to 190 °C |
| Oc1cc(Cl)nnc1Oc1c(C2CC2)ccc2c1CCC2 [Compound No. 1091, 6-Chloro-3-[(5-cyclopropyl-2,3-dihydro-1H-inden-4-yl)oxy]-4-pyridazinol] | 218 to 220 °C |
| Cc1nc2cccc(Oc3nnc(Cl)cc3O)c2o1 [Compound No. 549, 6-Chloro-3-[(2-methyl-1,3-benzoxazol-7-yl)oxy]-4-pyridazinol] | 197 to 202 °C |
| O=S(=O)(Oc1cc(Cl)nnc1Oc1ccccc1C1CC1)C(F)(F)F (as salt: methanesulfonate) [Compound No. 2081, 6-Chloro-3-(2-cyclopropylphenoxy)-4-pyridazinyl trifluoromethanesulfonate] | 54 to 61 °C |
| CC(C)c1cccc(Cl)c1Oc1nnc(Cl)cc1O [Compound No. 738, 6-Chloro-3-(2-chloro-6-isopropylphenoxy)-4-pyridazinol] | 218 to 233 °C |
| Cc1cc(OC(=O)c2ccccc2)ccc1Oc1nnc(Cl)cc1OC(=O)c1ccccc1 [Compound No. 3850, 4-{[4-(Benzoyloxy)-6-chloro-3-pyridazinyl]oxy}-3-methylphenyl benzoate] | 118 to 120 °C |
| Cc1cc(C)cc(Oc2nnc(Cl)cc2O)c1 [Compound No. 998, 6-Chloro-3-(3,5-dimethylphenoxy)-4-pyridazinol] | 178 to 182 °C |
| CN(C)C(=O)Oc1cc(Cl)nnc1Oc1cccc(C(F)(F)F)c1 | 92 to 93 °C |
| Cc1ccccc1Oc1nncc(Cl)c1O [Compound No. 45, 5-Chloro-3-(2-methylphenoxy)-4-pyridazinol] | 238 to 243 °C |
| Oc1cc(Cl)nnc1Oc1cc(F)ccc1C1CC1 [Compound No. 658, 6-Chloro-3-(2-cyclopropyl-5-fluorophenoxy)-4-pyridazinol] | 227 to 228 °C |
| CCc1cccc(CC)c1Oc1nnc(Cl)cc1O [Compound No. 846, 6-Chloro-3-(2,6-diethylphenoxy)-4-pyridazinol] | 181 to 185 °C |
| CC(=O)Oc1cc(Cl)nnc1Oc1c(C)cccc1C1CC1 [Compound No. 1151, 6-Chloro-3-(2-cyclopropyl-6-methylphenoxy)-4-pyridazinyl acetate] | 98 to 101 °C |
| COc1cccc(Oc2nnc(Cl)cc2O)c1 [Compound No. 425, 6-Chloro-3-(3-methoxyphenoxy)-4-pyridazinol] | 199 to 203 °C |

Second part, the molecule after the results:

| melting point | SMILES |
| --- | --- |
| 180 to 182 °C | Oc1cc(Cl)nnc1Oc1ccccc1C1(C2CC2)CC1 [Compound No. 151, 6-Chloro-3-{2-[1-(cyclopropyl)cyclopropyl]phenoxy}-4-pyridazinol] |
| 91 to 92 °C | Cc1cccc(C2CC2)c1Oc1nnc(Cl)cc1OC(=O)CC(C)(C)C [Compound No. 2662, 6-Chloro-3-(2-cyclopropyl-6-methylphenoxy)-4-pyridazinyl 3,3-dimethylbutanoate] |
| 107 to 109 °C | Cc1ccccc1Oc1nnc(Cl)cc1OC(=O)N(C)C |
| 238 to 240 °C (dec.) | Cc1c(C)c(C)c(Oc2nnc(Cl)cc2O)c(C)c1C [Compound No. 2614, 6-Chloro-3-(2,3,4,5,6-pentamethylphenoxy)-4-pyridazinol] |
| 241 to 244 °C | Cc1c(Oc2nnc(Cl)cc2O)cccc1[N+](=O)[O-] [Compound No. 458, 6-Chloro-3-(2-methyl-3-nitrophenoxy)-4-pyridazinol] |
| 187 to 189 °C | Cc1cccc(C2CC2)c1Oc1nnc(Cl)cc1C(=O)[O-].[K+] |
| 210 to 212 °C | Oc1cc(Cl)nnc1Oc1ccccc1F [Compound No. 124, 6-Chloro-3-(2-fluorophenoxy)-4-pyridazinol] |
| 255 to 257 °C | Cc1ccc(C)c(Oc2nnc(Cl)cc2O)c1Br [Compound No. 1040, 3-(2-Bromo-3,6-dimethylphenoxy)-6-chloro-4-pyridazinol] |
| 197 to 199 °C | C[Si](C)(C)c1ccc(Oc2nnc(Cl)cc2O)cc1 |
| 230 to 232 °C | Oc1cc(Cl)nnc1Oc1cccc2c1CCC2 [Compound No. 506, 6-Chloro-3-(2,3-dihydro-1H-inden-4-yloxy)-4-pyridazinol] |
| 209 to 210 °C | COc1c(C)cc(C)c(C)c1Oc1nnc(Cl)cc1O [Compound No. 1128, 6-Chloro-3-(2-methoxy-3,5,6-trimethylphenoxy)-4-pyridazinol] |
| 229 to 234 °C | Cc1ccc(C2CC2)c(Oc2nnc(Cl)cc2O)c1C [Compound No. 1061, 6-Chloro-3-(6-cyclopropyl-2,3-dimethylphenoxy)-4-pyridazinol] |
| 103 to 105 °C | Cc1cccc(C2CC2)c1Oc1nnc(Cl)cc1OC(=O)N(C(C)C)C(C)C |
| 182 to 185 °C | CC(=O)c1cc(O)c(Oc2ccccc2C)nn1 [Compound No. 2455, 1-[5-Hydroxy-6-(2-methylphenoxy)-3-pyridazinyl]ethanone] |
